From article PMC8409970, “In vitro and in silico studies of bis (indol-3-yl) methane derivatives as potential α-glucosidase and α-amylase inhibitors” (Journal of Enzyme Inhibition and Medicinal Chemistry, 2021)

Experiments:
α-glucosidase = α-glucosidase (Saccharomyces cerevisiae, UniProt P53341); experiment: α-Glucosidase inhibition assay (PNPG substrate); assay type: biochemical; settings: pH 6.8, 37 °C
Procedure: The in vitro α-glucosidase inhibitory activities of all synthesised compounds were evaluated using p-nitrophenyl-α-D-glucopyranoside (PNPG) as substrate.
The α-glucosidase inhibitory activity of compounds 5a ∼ c, 6a ∼ c, and 7a ∼ c were performed according to our previous report.[30]^,[31] The 10 μL of α-glucosidase enzyme (final concentration 0.1 U/mL) and 10 μL of test compounds (dissolved in DMSO) were added into 130 μL of phosphate buffer (0.1 M, pH 6.8), followed 10 min incubation at 37 °C. Then 50 μL of PNPG (final concentration 0.25 mM) was added, and mixture was continuely incubated for 20 min at 37 °C. The absorbance at 405 nm was measured using Multimodel Reader. The percentage of enzyme inhibition was calculated: % Inhibition = [(A1– A0)/A0] × 100%, where A1 was the absorbance with the test compound, and A0 was the absorbance without the test compound. The IC50 value of compound was obtained from the plot of inhibition percentage vs test compound at different concentrations. […] The experiment was performed in duplicate.

α-amylase = biological target: T1, α-amylase (Sus scrofa, UniProt P00690); experiment: α-Amylase inhibition assay (starch/DNS); assay type: biochemical; settings: starch substrate, pH 6.9, 37 °C
T1 sequence (P00690 16-511): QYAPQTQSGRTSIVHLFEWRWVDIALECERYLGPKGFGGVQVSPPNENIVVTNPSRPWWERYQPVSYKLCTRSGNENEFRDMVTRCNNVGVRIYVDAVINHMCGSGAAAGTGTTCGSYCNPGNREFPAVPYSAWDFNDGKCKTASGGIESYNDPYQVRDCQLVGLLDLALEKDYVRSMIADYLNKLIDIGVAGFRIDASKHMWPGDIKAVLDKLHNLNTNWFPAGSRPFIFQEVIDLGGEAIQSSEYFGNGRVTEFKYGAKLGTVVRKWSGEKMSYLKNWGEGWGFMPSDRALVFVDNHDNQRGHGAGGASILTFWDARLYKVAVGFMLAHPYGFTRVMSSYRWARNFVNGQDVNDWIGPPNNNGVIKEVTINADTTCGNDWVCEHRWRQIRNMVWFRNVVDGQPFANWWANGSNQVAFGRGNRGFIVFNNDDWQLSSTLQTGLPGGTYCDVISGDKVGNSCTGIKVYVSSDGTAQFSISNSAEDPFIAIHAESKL
Procedure: The α-amylase inhibitory activity of all tested compounds was performed according to previous report.[33]^,[34] A 10 μL of α-amylase enzyme solution (final concentration 0.25 U/mL), 10 μL of test compounds (dissolved in DMSO), and 80 μL of phosphate buffer (20 mM, pH 6.9) were mixed and incubated for 10 min at 37 °C. Next, 100 μL starch solution (final concentration 0.5%) was added into the mixture followed by an incubation of 10 min. After 100 μL DNS (containing 1 M Potassium sodium tartrate and 48 mM 3,5-Dinitrosalicylic acid) was added, the mixture was kept incubated in boiling water for 15 min. Finally, the absorbance was measured at 540 nm after dilution of solution by adding 900 μL distilled water. The percentage of enzyme inhibition was calculated: % Inhibition = [(A1– A0)/A0] × 100%, where A1 was the absorbance with the test compound, and A0 was the absorbance without the test compound. The IC50 value of compound was obtained from the plot of inhibition percentage vs test compound at different concentrations. […] The experiment was performed in duplicate.

α-glucosidase, sequence (P53341 whole entry): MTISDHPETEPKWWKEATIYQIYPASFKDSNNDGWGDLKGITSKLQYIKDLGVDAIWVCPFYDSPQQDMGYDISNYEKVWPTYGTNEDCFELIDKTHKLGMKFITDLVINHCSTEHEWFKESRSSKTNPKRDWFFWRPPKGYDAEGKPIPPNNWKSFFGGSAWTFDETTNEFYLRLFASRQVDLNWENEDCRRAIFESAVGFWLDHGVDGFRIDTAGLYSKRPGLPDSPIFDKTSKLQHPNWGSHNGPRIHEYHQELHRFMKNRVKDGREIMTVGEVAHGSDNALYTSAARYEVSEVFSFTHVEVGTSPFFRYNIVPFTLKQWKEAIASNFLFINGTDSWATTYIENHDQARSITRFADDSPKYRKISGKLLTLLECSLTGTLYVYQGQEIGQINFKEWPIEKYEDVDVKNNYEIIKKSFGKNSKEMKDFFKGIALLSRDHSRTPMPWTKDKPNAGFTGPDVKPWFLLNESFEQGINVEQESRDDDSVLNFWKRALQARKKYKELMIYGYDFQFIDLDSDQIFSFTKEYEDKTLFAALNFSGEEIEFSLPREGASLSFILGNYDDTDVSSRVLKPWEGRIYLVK

| Substance | IC50 (α-glucosidase) [µM] | IC50 (α-amylase) [µM] |
| --- | --- | --- |
| 2,2-Di(1H-pyrrol-3-yl)acetonitrile [Compound 6c] | 130 ± 3.81 | 419 ± 11.3 |
| 2,2-Bis(1-methyl-1H-pyrrol-3-yl)acetonitrile [Compound 6a] | 220 ± 5.02 | 464 ± 9.47 |
